These results are taken from PMC6025875, “Genetic manipulation of Leishmania donovani threonyl tRNA synthetase facilitates its exploration as a potential therapeutic target” (PLoS Neglected Tropical Diseases, 2018).

Data set [1] concerns the target T1, threonyl tRNA synthetase (LdThrRS) (Leishmania donovani, UniProt A0A3S7X901).
T1 construct: gene LdCL_350019100; full-length recombinant LdThrRS with N-terminal His6 tag (rLdThrRS, pET30a, E. coli BL21 (DE3))
As to the kind of experiment: ITC at […]°C (N = […]); also inhibits aminoacylation of the purified enzyme, IC50 […]. In kind it is binding.

Substrate in data set [2]: C[C@@H](O)[C@H](N)C(=O)O
As to the kind of experiment: purified protein.

As usually defined, the Kd is the concentration at which binding is half-saturated. A low value points to tighter binding. Molecule `C[C@@H]1C[C@H](C)C[C@H](C)[C@@H](O)CC(=O)O[C@H]([C@@H]2CCC[C@H]2C(=O)O)C/C=C/C=C(/C#N)[C@H](O)[C@@H](C)C1` [borrelidin] registered a Kd in data set [1] of 40 nM.

B1: threonyl tRNA synthetase (LdThrRS) (Leishmania donovani) (protein)
chain: MSGKKKAAEATVDLATLAEPGFWRQRVEIFEQLWQQQQNRYESMKAPIKVSLPDGKVMDAESWVTCPLDIAKRLSNSLPDKVIVARVNEALWDLTRPFEADCQLELLDWDDKDAREVFWHSSSHVLGYALERIFDTKLSVGPALEEGGFFYEGLTNRPVSESDYKAIESAMQELVKQKMPYQRLEVSKEDALRLFGYTEFKSKILASKVPDGGSCTVYRCGMLIDPCRGPHLPDTGRVKAFAVTKNSSSYFEGKAENEVLQRVYGISFPKNPMLTEWKTIQEEAAKRDHRVIGRQQNLFNFHEVSPGSAFWLPHGTRIYNTLVEFLRKKYRRCGFQEVISPNMYSSKLWMVSGHWEKYADNMFCTKCEKEDFGLKPMNCPGHCIMFASQPHSYKELPIRYADFGVLHRNELSGALTGLTRVRRFQQDDAHIFCRMDQITDEMEGQMQFLSDVYGVLGFKFYFYHSTRPANKLGSDALWDQSESYLRTALNRFCGIPEELPDPLHPDQRFHYDGKPDSVKKMKALMKKAERCEDPNAWKGPTNGGDGWIENAGDGAFYGPKIDIVVEDALRRRHQCATIQLDFNLPSRFGLKYTLPAAEKDETTVSPTEKQKHADPALTASSPAVEDCVSKPKPGTYEAAVRDLGIDLELDANQARPVMIHRAILGSLERSIAILCEHFGGDWPFWLSPRQVMVVPVSASNYEYSQQVRDTMHDAGFHADVDNGAATLDKKIRNAEKARYNFILVVGQKEQDATAVNIRARGEKRLGNKSLVEAVQWLKELADTHNREY
A word on the Km: it is the substrate concentration at which the rate is half of its maximum. Consider B1, for which, in data set [2], the Michaelis constant (Km) worked out at 250 ± 30 µM.
